The record followed here is patent US20220033397A1, “PHARMACEUTICAL COMPOUNDS AND THEIR USE AS INHIBITORS OF UBIQUITIN SPECIFIC PROTEASE 19 (USP19)” (ALMAC DISCOVERY LIMITED, priority 2018, published 2022).

Molecules are shown by their SMILES. Where only a bound is given, the exact number is not on record here.

In this assay the target is T1, Full-length USP19 (Homo sapiens, UniProt O94966).
T1 construct: Full-length USP19 was purchased from Boston Biochem (E-576); purchased Boston Biochem E-576
T1 sequence (O94966 1-1318): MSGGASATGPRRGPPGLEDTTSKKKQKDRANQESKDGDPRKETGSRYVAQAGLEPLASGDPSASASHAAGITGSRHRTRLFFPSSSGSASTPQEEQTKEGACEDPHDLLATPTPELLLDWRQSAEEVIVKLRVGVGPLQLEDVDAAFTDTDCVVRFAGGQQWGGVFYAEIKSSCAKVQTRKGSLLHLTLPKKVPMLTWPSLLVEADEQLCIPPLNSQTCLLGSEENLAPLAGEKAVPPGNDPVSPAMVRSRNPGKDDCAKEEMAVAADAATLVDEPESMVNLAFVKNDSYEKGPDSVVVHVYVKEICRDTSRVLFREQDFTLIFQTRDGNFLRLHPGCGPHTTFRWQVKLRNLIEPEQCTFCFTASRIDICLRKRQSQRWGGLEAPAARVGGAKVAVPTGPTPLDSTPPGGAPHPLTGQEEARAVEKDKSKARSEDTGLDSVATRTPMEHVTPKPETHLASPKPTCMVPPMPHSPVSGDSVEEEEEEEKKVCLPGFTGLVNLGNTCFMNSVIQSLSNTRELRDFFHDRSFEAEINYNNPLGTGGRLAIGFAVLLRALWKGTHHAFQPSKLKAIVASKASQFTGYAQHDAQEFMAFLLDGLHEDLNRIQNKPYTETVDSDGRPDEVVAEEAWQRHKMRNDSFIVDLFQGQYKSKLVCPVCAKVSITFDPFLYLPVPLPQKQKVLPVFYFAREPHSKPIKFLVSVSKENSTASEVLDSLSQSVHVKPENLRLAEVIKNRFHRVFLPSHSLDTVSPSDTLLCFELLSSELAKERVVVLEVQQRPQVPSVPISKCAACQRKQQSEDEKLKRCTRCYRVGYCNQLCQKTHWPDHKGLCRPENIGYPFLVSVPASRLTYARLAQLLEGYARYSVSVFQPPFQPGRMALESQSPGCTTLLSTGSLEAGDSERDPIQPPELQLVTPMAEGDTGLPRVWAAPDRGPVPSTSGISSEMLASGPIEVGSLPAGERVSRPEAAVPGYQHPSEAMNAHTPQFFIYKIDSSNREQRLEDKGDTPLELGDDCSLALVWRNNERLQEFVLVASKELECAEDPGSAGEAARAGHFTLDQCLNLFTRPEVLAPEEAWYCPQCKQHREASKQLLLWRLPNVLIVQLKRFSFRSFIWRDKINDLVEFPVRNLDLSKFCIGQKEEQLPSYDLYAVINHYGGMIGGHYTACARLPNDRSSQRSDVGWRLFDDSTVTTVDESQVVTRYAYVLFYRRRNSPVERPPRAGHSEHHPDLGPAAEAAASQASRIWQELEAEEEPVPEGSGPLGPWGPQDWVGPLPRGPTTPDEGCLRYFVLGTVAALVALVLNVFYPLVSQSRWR
The experiment in a line: USP19 fluorescence polarisation (FP) homogeneous assay with Ubiquitin-Lys-TAMRA substrate. The class given is biochemical. As to conditions: 2.5 nM USP19, 30 min pre-incubation, average of at least two duplicate experiments. The procedure, abridged: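 Full-length USP19 preincubated 30 min at RT with inhibitor (200 μM to 2 μM series, 8–18 points) before adding 500 nM Ubiquitin-Lys-TAMRA substrate.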
A word on the IC50: it is the concentration needed to halve the response being measured. With `C[C@H](CC(F)(F)F)C(=O)N1CCC(O)(Cn2ccc3cc(C(F)(F)F)ccc3c2=O)C2(CCCC2)C1` (stereo partly drawn) [Example 126, 2-((10-Hydroxy-7-((R)-4,4,4-trifluoro-2-methylbutanoyl)-7-azaspiro[4.5]decan-10-yl)methyl)-6-(trifluoromethyl)isoquinolin-1(2H)-one], the 50% inhibitory concentration (IC50) is 5 to 50 µM.
`CN(Cc1cccc(C#N)c1)C(=O)N1CCC(O)(Cn2cnc(-c3ccccc3)cc2=O)C2(CCCC2)C1` (centres unmarked) [Example 251, N-(3-Cyanobenzyl)-10-hydroxy-N-methyl-10-((6-oxo-4-phenylpyrimidin-1(6H)-yl)methyl)-7-azaspiro[4.5]decane-7-carboxamide]: the IC50 lay in the range of 0.5 to 5 µM.
As for `O=C(N1CC[C@@](O)(Cn2cnc(C3CC3)cc2=O)C2(CCCC2)C1)N1CCOC[C@H]1c1ccccc1` [Example 222, 6-Cyclopropyl-3-(((S)-10-hydroxy-7-((R)-3-phenylmorpholine-4-carbonyl)-7-azaspiro[4.5]decan-10-yl)methyl)pyrimidin-4(3H)-one], the figure is less than 0.5 µM; as for `CC(C)COC(=O)N1CCC(O)(Cn2cc(C(=O)N(C)C)c(-c3ccccc3)cc2=O)C2(CCCC2)C1` (centres unmarked) [Example 84, Isobutyl 10-((5-(dimethylcarbamoyl)-2-oxo-4-phenylpyridin-1(2H)-yl)methyl)-10-hydroxy-7-azaspiro[4.5]decane-7-carboxylate], 5 to 50 µM.
Turning to `O=C(N1CC[C@@](O)(Cn2cnc(-c3cccc(F)c3)cc2=O)C2(CCCC2)C1)N1CCNC[C@H]1c1ccccc1` [Example 315, 6-(3-Fluorophenyl)-3-(((S)-10-hydroxy-7-((R)-2-phenylpiperazine-1-carbonyl)-7-azaspiro[4.5]decan-10-yl)methyl)pyrimidin-4(3H)-one], the IC50 was less than 0.5 µM.
As for `C[C@H](CC(F)(F)F)C(=O)N1CCC(O)(Cn2cnc3sccc3c2=O)C2(CCCC2)C1` (stereo partly drawn) [Example 123, 3-((10-Hydroxy-7-((R)-4,4,4-trifluoro-2-methylbutanoyl)-7-azaspiro[4.5]decan-10-yl)methyl)thieno[2,3-d]pyrimidin-4(3H)-one], the figure is 50 to 250 µM; as for `COc1cc2ncn(CC3(O)CCN(C(=O)[C@H](C)CC4CCCCC4)CC34CCCC4)c(=O)c2cc1OC` (stereo partly drawn) [Example 52, 3-((7-((R)-3-Cyclohexyl-2-methylpropanoyl)-10-hydroxy-7-azaspiro[4.5]decan-10-yl)methyl)-6,7-dimethoxyquinazolin-4(3H)-one], 0.5 to 5 µM.
In the case of `O=C(N1CC[C@@](O)(Cn2cnc(-c3ccccc3C(F)(F)F)cc2=O)C2(CCCC2)C1)N1CCNC[C@H]1c1ccccc1` [Example 360, 3-(((S)-10-Hydroxy-7-((R)-2-phenylpiperazine-1-carbonyl)-7-azaspiro[4.5]decan-10-yl)methyl)-6-(2-(trifluoromethyl)phe-nyl)pyrimidin-4(3H)-one], the IC50 is less than 0.5 µM.
The value for `O=C(N1CC[C@@](O)(Cn2cnc(-c3ccccc3)cc2=O)C2(CCCC2)C1)N1CCNC[C@H]1c1ccc(F)cc1` [Example 369, 3-(((S)-7-((R)-2-(4-Fluorophenyl)pipera-zine-1-carbonyl)-10-hydroxy-7-azaspiro[4.5]decan-10-yl)methyl)-6-phenylpyrimidin-4(3H)-one] was less than 0.5 µM.
With `O=C(N1CCC(n2cccc2)C1)N1CCC(O)(Cn2cnc(-c3ccccc3)cc2=O)C2(CCCC2)C1` (centres unmarked) [Example 246, 3-((7-(3-(1H-Pyrrol-1-yl)pyrrolidine-1-carbonyl)-10-hydroxy-7-azaspiro[4.5]decan-10-yl)methyl)-6-phenylpyrimidin-4(3H)-one], the IC50 was 5 to 50 µM.
The value for `C[C@H](CC1CCCCC1)C(=O)N1CCC(O)(Cn2ccc3occc3c2=O)C2(CCCC2)C1` (stereo partly drawn) [Example 138, 5-((7-((R)-3-Cyclohexyl-2-methylpropanoyl)-10-hydroxy-7-azaspiro[4.5]decan-10-yl)methyl)furo[3,2-c]pyridin-4(5H)-one] was 5 to 50 µM.
